Measured values reported in ChEMBL document CHEMBL1138948, “Design, synthesis, and evaluation of proline and pyrrolidine based melanocortin receptor agonists. A conformationally restricted dipeptide mimic approach” (J Med Chem, 2006).
Non-standard residues stand in square brackets, D forms with d. Residues, ends and D or L forms follow the SMILES beside them. 2Nal = N[C@@H](Cc1ccc2ccccc2c1)C(=O)O

Experiments:
[1] = biological target: T1, Melanocortin receptor 3 (Homo sapiens, UniProt P41968); assay: Agonist activity at human MC3R transfected in HEK293 cells; assay type: functional, cell-based
T1 sequence (P41968 whole entry): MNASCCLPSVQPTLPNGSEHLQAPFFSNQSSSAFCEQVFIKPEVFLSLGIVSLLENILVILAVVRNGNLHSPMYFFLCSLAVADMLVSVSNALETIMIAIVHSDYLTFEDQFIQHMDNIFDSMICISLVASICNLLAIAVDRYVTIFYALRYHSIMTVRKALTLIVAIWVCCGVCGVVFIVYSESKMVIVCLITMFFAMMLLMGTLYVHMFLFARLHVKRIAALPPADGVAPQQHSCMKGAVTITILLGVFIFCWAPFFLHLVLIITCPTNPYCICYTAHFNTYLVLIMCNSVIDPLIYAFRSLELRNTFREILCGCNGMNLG

[2] = biological target: T2, Melanocortin receptor 4 (Homo sapiens, UniProt P32245); assay: Displacement of europium labeled NDP-alpha-MSH from human MC4R expressed in HEK293 cells; assay type: cell-based
T2 sequence (P32245 whole entry): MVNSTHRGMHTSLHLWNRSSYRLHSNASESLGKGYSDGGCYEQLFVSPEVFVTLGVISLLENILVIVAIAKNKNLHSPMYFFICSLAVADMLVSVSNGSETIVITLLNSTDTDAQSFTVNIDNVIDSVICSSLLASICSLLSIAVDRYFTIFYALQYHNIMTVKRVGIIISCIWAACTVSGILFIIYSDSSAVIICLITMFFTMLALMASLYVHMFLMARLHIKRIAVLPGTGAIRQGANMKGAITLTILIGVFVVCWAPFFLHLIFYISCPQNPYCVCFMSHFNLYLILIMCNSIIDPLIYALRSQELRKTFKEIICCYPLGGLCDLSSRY

[3] = biological target: T1, Melanocortin receptor 3; assay: Displacement of europium labeled NDP-alpha-MSH from human MC3R expressed in HEK293 cells; assay type: cell-based
[4] = biological target: T3, Melanocyte-stimulating hormone receptor (Homo sapiens, UniProt Q01726); assay: Displacement of europium labeled NDP-alpha-MSH from human MC1R expressed in HEK293 cells; assay type: cell-based
T3 sequence (Q01726 whole entry): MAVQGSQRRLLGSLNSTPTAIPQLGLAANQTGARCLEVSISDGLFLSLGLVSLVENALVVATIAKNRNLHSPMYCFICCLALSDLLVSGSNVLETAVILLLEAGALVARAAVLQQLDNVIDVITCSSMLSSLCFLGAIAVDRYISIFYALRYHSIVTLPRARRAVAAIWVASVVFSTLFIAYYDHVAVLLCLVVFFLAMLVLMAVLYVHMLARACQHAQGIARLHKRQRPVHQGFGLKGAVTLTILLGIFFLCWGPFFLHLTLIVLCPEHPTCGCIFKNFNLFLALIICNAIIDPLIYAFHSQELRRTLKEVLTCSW

[5] = biological target: T3, Melanocyte-stimulating hormone receptor; assay: Agonist activity at human MC1R transfected in HEK293 cells; assay type: functional, cell-based
[6] = biological target: T2, Melanocortin receptor 4; assay: Agonist activity at human MC4R transfected in HEK293 cells; assay type: functional, cell-based

Row | EC50 [1] | Ki [2] | Ki [3] | Ki [4] | EC50 [5] | EC50 [6] | Structure (SMILES)
1 | 10 nM | 187 nM | 835 nM | 103 nM | 4.3 nM | 8 nM | NC(=O)C[C@H](N)C(=O)N[C@H](Cc1ccccc1)C(=O)N1C[C@@H](OCc2ccc3ccccc3c2)C[C@@H]1CCCN=C(N)N
2 | 2050 nM | 137 nM | 403 nM | 611 nM | 585 nM | 266 nM | NC(N)=NCCC[C@H]1C[C@@H](OCc2ccc3ccccc3c2)CN1C(=O)[C@@H](Cc1ccccc1)NC(=O)CCc1ccccc1
3 |  | 6670 nM | 15400 nM | 443 nM | 402 nM | 20000 nM | NC(=O)C[C@H](N)C(=O)N[C@H](Cc1ccccc1)C(=O)N1C[C@H](OCc2ccc3ccccc3c2)C[C@H]1CCCN=C(N)N
4 | 3720 nM | 2880 nM | 7230 nM | 4.7 nM | 8 nM | 986 nM | CC(=O)N[C@@H](Cc1c[nH]cn1)C(=O)N[C@H](Cc1ccccc1)C(=O)N1C[C@H](OCc2ccc3ccccc3c2)C[C@H]1CCCN=C(N)N
5 |  | 1710 nM | 7440 nM | 340 nM | 449 nM | 10800 nM | N=C(N)NCCC[C@@H]1C[C@@H](OCc2ccc3ccccc3c2)CN1C(=O)[C@@H](Cc1ccccc1)NC(=O)[C@@H]1CCCCN1
6 |  | 2260 nM | 7160 nM | 1790 nM | 1070 nM | 515 nM | N=C(N)NCCC[C@@H]1C[C@H](OCc2ccc3ccccc3c2)CN1C(=O)[C@@H](Cc1ccccc1)NC(=O)[C@@H]1CCCCN1

The remaining lines, values behind:

Row | Structure (SMILES) | EC50 [1] | Ki [2] | Ki [3] | Ki [4] | EC50 [5] | EC50 [6]
7 | CC(=O)N[C@@H](Cc1c[nH]cn1)C(=O)N[C@H](Cc1ccccc1)C(=O)N1C[C@@H](OCc2ccc3ccccc3c2)C[C@@H]1CCCN=C(N)N | 1.3 nM | 57 nM | 117 nM | 1.3 nM | 0.045 nM | 2.3 nM
8 | CNC(=O)[C@H](Cc1ccc2ccccc2c1)NC(=O)[C@H](CCCN=C(N)N)NC(=O)[C@@H](Cc1ccccc1)NC(=O)[C@H](Cc1ccc(O)cc1)NC(C)=O (Ac-Y[dF]R[2Nal]-NHMe) |  |  |  |  | 20000 nM | 
9 | CNC(=O)[C@H](Cc1ccc2ccccc2c1)NC(=O)[C@H](CCCN=C(N)N)NC(=O)[C@@H](Cc1ccccc1)NC(=O)[C@H](Cc1c[nH]cn1)NC(C)=O | 541 nM | 29 nM | 1200 nM | 13 nM | 14 nM | 5.7 nM
10 | CC(=O)N[C@@H](Cc1ccc(O)cc1)C(=O)N[C@H](Cc1ccccc1)C(=O)N1C[C@@H](OCc2ccc3ccccc3c2)C[C@@H]1CCCN=C(N)N | 68 nM | 248 nM | 425 nM | 138 nM | 71 nM | 39 nM
11 | N=C(N)NCCC[C@@H]1C[C@H](OCc2ccc3ccccc3c2)CN1C(=O)[C@@H](Cc1ccccc1)NC(=O)[C@@H]1Cc2ccccc2CN1 | 3150 nM | 670 nM | 4180 nM | 1400 nM | 1360 nM | 457 nM
12 | NC(N)=NCCC[C@H]1C[C@@H](OCc2ccc3ccccc3c2)CN1C(=O)[C@@H](Cc1ccccc1)NC(=O)[C@@H]1CCCCN1 | 260 nM | 31 nM | 156 nM | 40 nM | 30 nM | 14 nM
13 | CNC(=O)[C@H](Cc1ccc2ccccc2c1)NC(=O)[C@H](CCCN=C(N)N)NC(=O)[C@H](N)Cc1ccccc1 |  | 2010 nM | 22600 nM | 4380 nM | 20000 nM | 809 nM
14 | CC(=O)N[C@@H](Cc1c[nH]cn1)C(=O)N[C@@H](Cc1ccccc1)C(=O)N[C@@H](CCCN=C(N)N)C(=O)N[C@@H](Cc1c[nH]c2ccccc12)C(N)=O | 248 nM |  | 2860 nM | 35 nM | 14 nM | 
15 | CC(=O)N[C@@H](Cc1ccc(O)cc1)C(=O)N[C@H](Cc1ccccc1)C(=O)N1C[C@H](OCc2ccc3ccccc3c2)C[C@H]1CCCN=C(N)N |  | 2350 nM | 19200 nM | 1690 nM | 1750 nM | 20000 nM
